According to PubChem BioAssay AID1963435 (Molecular Pharmacology Branch, DTP, NCI, 2024):
“And” between values parts separate entries of the source, which are not always exact repeats. Equal values may be shown once.

System: PANC-1 complex spheroid growth, percent test/control
Assay: Anticancer human tumor PANC-1 cell line growth inhibition [Asc];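 note: spheroids exposed to agents for 7 days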;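 for viability, T/C: percent viability relative to DMSO vehicle wells taken as 100%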
Conditions: for viability, T/C: stronger effect = lower value
Method in brief: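 Stromal components (HUVEC and hMSC) are co-assembled with the cancer cells into multicellular spheroids. Drugs are then added singly or paired, at concentrations falling by half-log increments from a clinically achievable maximum, capped at 10 microM without known Cmax.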

[1] = curve of first compound, second compound 0.0316 µM
[2] = curve of first compound, second compound 0.1 µM
[3] = curve of first compound, second compound 0.316 µM
[4] = curve of first compound, second compound 1 µM

**Q.** `CCN1CCN(Cc2ccc(Nc3ncc(F)c(-c4cc(F)c5nc(C)n(C(C)C)c5c4)n3)nc2)CC1` + CNC(C)C(=O)NC1CN(S(=O)(=O)c2cccc(S(=O)(=O)N3CCC4CCC(C(=O)NC(c5ccccc5)c5ccccc5)N4C(=O)C(NC(=O)C(C)NC)C3)c2)CCC2CCC(C(=O)NC(c3ccccc3)c3ccccc3)N2C1=O was tested. Which IC50 (curve of first compound, second compound 0.00316 µM) did it give?
**A.** > 1 µM

**Q.** What about the IC50 (curve of first compound, second compound 0.01 µM) of the same molecule?
**A.** > 1 µM

**Q.** And the IC50 [1]?
**A.** > 1 µM

**Q.** What about the IC50 [2] of the same molecule?
**A.** > 1 µM

**Q.** What about the IC50 [3] of the same molecule?
**A.** > 1 µM

**Q.** And the IC50 [4]?
**A.** > 1 µM

**Q.** And the viability, T/C (second compound 0.00316 µM, first compound 0.00316 µM)?
**A.** 119%

**Q.** And the viability, T/C (second compound 0.00316 µM, first compound 0.01 µM)?
**A.** 108%

**Q.** What about the viability, T/C (second compound 0.00316 µM, first compound 0.0316 µM) of the same molecule?
**A.** 105%

**Q.** And the viability, T/C (second compound 0.00316 µM, first compound 0.1 µM)?
**A.** 117%

**Q.** What about the viability, T/C (second compound 0.00316 µM, first compound 0.316 µM) of the same molecule?
**A.** 129%

**Q.** And the viability, T/C (second compound 0.00316 µM, first compound 1 µM)?
**A.** 143%

**Q.** What about the viability, T/C (second compound 0.01 µM, first compound 0.00316 µM) of the same molecule?
**A.** 95.1%

**Q.** What about the viability, T/C (second compound 0.01 µM, first compound 0.01 µM) of the same molecule?
**A.** 96.8%

**Q.** What about the viability, T/C (second compound 0.01 µM, first compound 0.0316 µM) of the same molecule?
**A.** 108%

**Q.** What about the viability, T/C (second compound 0.01 µM, first compound 0.1 µM) of the same molecule?
**A.** 116%

**Q.** What about the viability, T/C (second compound 0.01 µM, first compound 0.316 µM) of the same molecule?
**A.** 124%

**Q.** What about the viability, T/C (second compound 0.01 µM, first compound 1 µM) of the same molecule?
**A.** 127%

**Q.** What about the viability, T/C (second compound 0.0316 µM, first compound 0.00316 µM) of the same molecule?
**A.** 96%

**Q.** What about the viability, T/C (second compound 0.0316 µM, first compound 0.01 µM) of the same molecule?
**A.** 101%

**Q.** What about the viability, T/C (second compound 0.0316 µM, first compound 0.0316 µM) of the same molecule?
**A.** 107%

**Q.** What about the viability, T/C (second compound 0.0316 µM, first compound 0.1 µM) of the same molecule?
**A.** 112%

**Q.** And the viability, T/C (second compound 0.0316 µM, first compound 0.316 µM)?
**A.** 116%

**Q.** And the viability, T/C (second compound 0.0316 µM, first compound 1 µM)?
**A.** 136%

**Q.** And the viability, T/C (second compound 0.1 µM, first compound 0.00316 µM)?
**A.** 102%

**Q.** What about the viability, T/C (second compound 0.1 µM, first compound 0.01 µM) of the same molecule?
**A.** 102%

**Q.** What about the viability, T/C (second compound 0.1 µM, first compound 0.0316 µM) of the same molecule?
**A.** 102%

**Q.** And the viability, T/C (second compound 0.1 µM, first compound 0.1 µM)?
**A.** 97.4%

**Q.** What about the viability, T/C (second compound 0.1 µM, first compound 0.316 µM) of the same molecule?
**A.** 107%

**Q.** What about the viability, T/C (second compound 0.1 µM, first compound 1 µM) of the same molecule?
**A.** 118%

**Q.** What about the viability, T/C (second compound 0.316 µM, first compound 0.00316 µM) of the same molecule?
**A.** 92.2%

**Q.** And the viability, T/C (second compound 0.316 µM, first compound 0.01 µM)?
**A.** 91.8%

**Q.** What about the viability, T/C (second compound 0.316 µM, first compound 0.0316 µM) of the same molecule?
**A.** 109%

**Q.** And the viability, T/C (second compound 0.316 µM, first compound 0.1 µM)?
**A.** 105%

**Q.** And the viability, T/C (second compound 0.316 µM, first compound 0.316 µM)?
**A.** 118%

**Q.** And the viability, T/C (second compound 0.316 µM, first compound 1 µM)?
**A.** 129%

**Q.** And the viability, T/C (second compound 1 µM, first compound 0.00316 µM)?
**A.** 98.2%

**Q.** What about the viability, T/C (second compound 1 µM, first compound 0.01 µM) of the same molecule?
**A.** 98.2%

**Q.** What about the viability, T/C (second compound 1 µM, first compound 0.0316 µM) of the same molecule?
**A.** 99.5%

**Q.** What about the viability, T/C (second compound 1 µM, first compound 0.1 µM) of the same molecule?
**A.** 96.5%

**Q.** What about the viability, T/C (second compound 1 µM, first compound 0.316 µM) of the same molecule?
**A.** 109%

**Q.** What about the viability, T/C (second compound 1 µM, first compound 1 µM) of the same molecule?
**A.** 113%

**Q.** `O=C(c1cc(Cc2n[nH]c(=O)c3ccccc23)ccc1F)N1CCN(C(=O)C2CC2)CC1` was tested. Which viability, T/C (compound 0.0316 µM) did it give?
**A.** 93.1% and 94.8% and 102%

**Q.** And the viability, T/C (compound 0.1 µM)?
**A.** 92.7% and 90.1% and 94.9%

**Q.** And the viability, T/C (compound 0.316 µM)?
**A.** 99.7% and 109% and 102%

**Q.** What about the viability, T/C (compound 1 µM) of the same molecule?
**A.** 101% and 112% and 116%

**Q.** What about the viability, T/C (compound 3.16 µM) of the same molecule?
**A.** 113% and 107% and 103%

**Q.** What about the viability, T/C (compound 10 µM) of the same molecule?
**A.** 101% and 95.9% and 103%

**Q.** What about the IC50 (curve of compound) of the same molecule?
**A.** > 10 µM

**Q.** How did the IC50 [1] turn out when `Cc1nc(N2CCC3(CC2)COC(C)C3N)c(CO)nc1Sc1ccnc(N)c1Cl` (stereo unspecified) + Cc1c(S(C)(=O)=O)c(-c2cc(F)cc(N3CCN(c4ccc(NS(=O)(=O)c5ccc(NC(CCN6CCC(C(=O)OCCCP(=O)(O)O)CC6)CSc6ccccc6)c(S(=O)(=O)C(F)(F)F)c5)cc4)CC3)c2)c(-c2ccc(Cl)cc2)n1C(C)C was run?
**A.** > 3 µM

**Q.** And the IC50 [2]?
**A.** > 3 µM

**Q.** And the IC50 [3]?
**A.** > 3 µM

**Q.** What about the IC50 [4] of the same molecule?
**A.** > 3 µM

**Q.** What about the IC50 (curve of first compound, second compound 3.16 µM) of the same molecule?
**A.** > 3 µM

**Q.** And the IC50 (curve of first compound, second compound 10 µM)?
**A.** > 3 µM

**Q.** And the viability, T/C (second compound 0.0316 µM, first compound 0.00949 µM)?
**A.** 87.6%

**Q.** What about the viability, T/C (second compound 0.0316 µM, first compound 0.03 µM) of the same molecule?
**A.** 96.6%

**Q.** What about the viability, T/C (second compound 0.0316 µM, first compound 0.0949 µM) of the same molecule?
**A.** 88.2%

**Q.** And the viability, T/C (second compound 0.0316 µM, first compound 0.3 µM)?
**A.** 94.1%

**Q.** And the viability, T/C (second compound 0.0316 µM, first compound 0.949 µM)?
**A.** 89.5%

**Q.** What about the viability, T/C (second compound 0.0316 µM, first compound 3 µM) of the same molecule?
**A.** 95.2%

**Q.** What about the viability, T/C (second compound 0.1 µM, first compound 0.00949 µM) of the same molecule?
**A.** 92.8%

**Q.** And the viability, T/C (second compound 0.1 µM, first compound 0.03 µM)?
**A.** 88.3%

**Q.** And the viability, T/C (second compound 0.1 µM, first compound 0.0949 µM)?
**A.** 83.3%

**Q.** What about the viability, T/C (second compound 0.1 µM, first compound 0.3 µM) of the same molecule?
**A.** 90.1%

**Q.** What about the viability, T/C (second compound 0.1 µM, first compound 0.949 µM) of the same molecule?
**A.** 87.8%

**Q.** What about the viability, T/C (second compound 0.1 µM, first compound 3 µM) of the same molecule?
**A.** 84.7%

**Q.** What about the viability, T/C (second compound 0.316 µM, first compound 0.00949 µM) of the same molecule?
**A.** 103%

**Q.** And the viability, T/C (second compound 0.316 µM, first compound 0.03 µM)?
**A.** 93.4%

**Q.** What about the viability, T/C (second compound 0.316 µM, first compound 0.0949 µM) of the same molecule?
**A.** 89.8%

**Q.** And the viability, T/C (second compound 0.316 µM, first compound 0.3 µM)?
**A.** 87.6%

**Q.** And the viability, T/C (second compound 0.316 µM, first compound 0.949 µM)?
**A.** 91.8%

**Q.** What about the viability, T/C (second compound 0.316 µM, first compound 3 µM) of the same molecule?
**A.** 86.7%

**Q.** And the viability, T/C (second compound 1 µM, first compound 0.00949 µM)?
**A.** 102%

**Q.** And the viability, T/C (second compound 1 µM, first compound 0.03 µM)?
**A.** 91.8%

**Q.** What about the viability, T/C (second compound 1 µM, first compound 0.0949 µM) of the same molecule?
**A.** 85.9%

**Q.** What about the viability, T/C (second compound 1 µM, first compound 0.3 µM) of the same molecule?
**A.** 84.5%

**Q.** What about the viability, T/C (second compound 1 µM, first compound 0.949 µM) of the same molecule?
**A.** 88.2%

**Q.** And the viability, T/C (second compound 1 µM, first compound 3 µM)?
**A.** 85.5%

**Q.** What about the viability, T/C (second compound 3.16 µM, first compound 0.00949 µM) of the same molecule?
**A.** 101%

**Q.** And the viability, T/C (second compound 3.16 µM, first compound 0.03 µM)?
**A.** 94.5%

**Q.** What about the viability, T/C (second compound 3.16 µM, first compound 0.0949 µM) of the same molecule?
**A.** 86.2%

**Q.** What about the viability, T/C (second compound 3.16 µM, first compound 0.3 µM) of the same molecule?
**A.** 92.9%

**Q.** What about the viability, T/C (second compound 3.16 µM, first compound 0.949 µM) of the same molecule?
**A.** 84.6%

**Q.** And the viability, T/C (second compound 3.16 µM, first compound 3 µM)?
**A.** 77.8%

**Q.** What about the viability, T/C (second compound 10 µM, first compound 0.00949 µM) of the same molecule?
**A.** 175%

**Q.** And the viability, T/C (second compound 10 µM, first compound 0.03 µM)?
**A.** 177%

**Q.** What about the viability, T/C (second compound 10 µM, first compound 0.0949 µM) of the same molecule?
**A.** 161%

**Q.** What about the viability, T/C (second compound 10 µM, first compound 0.3 µM) of the same molecule?
**A.** 161%

**Q.** What about the viability, T/C (second compound 10 µM, first compound 0.949 µM) of the same molecule?
**A.** 164%

**Q.** And the viability, T/C (second compound 10 µM, first compound 3 µM)?
**A.** 147%
